In US6713633B1, “Compounds capable of cleaving double-stranded DNA and method of utilization of the same” (Japan Science and Technology Corporation, priority 1999, dated 2004):

Key:
[1] = tested on: 5′-end texas red-modified 450 bp DNA fragments pUC18 F780*-1229 and pUC18 R1459*-1908; experiment: Alkylation of 450 bp DNA fragments (thermally induced strand cleavage, high-resolution gel electrophoresis); format: biochemical
Text: Reactivities of the thus synthesized PyPyLDu86 and ImPyLDu86 with DNA were investigated.
The left electrophoresis pattern is a result of the upper strand of the double-strand DNA, and the right electrophoresis pattern is a result of the lower strand of the double-strand DNA. […] No compounds have been known to occur such the cleavage, and in this sense, the compound of the present invention can be said as an artificial restriction enzyme.
(1) Preparation of 5′-texas red-end-modified 450 bp DNA fragment
The 5′-end texas red-modified 450 bp DNA fragments pUC18 F780*-1229 and pUC18 R1459*-1908 (these are complementary) were prepared by the PCR method using 5′-end texas red-modified 18mers as primers and purified by filtration using Suprec-02. The concentration was determined by ethidium bromide staining. The asterisk (*) indicates texas red modification site, and numerals indicates nucleotide numbering from the replication origin.
(2) High-resolution gel electrophoresis
A standard reaction mixture containing 5′-end texas red-labeled DNA fragment 60 nM, DMF 5% (v/v) and various concentrations of drugs in total 10 μl of sodium phosphate buffer (pH 7.0) 12.5 mM was added into microcentrifugal tube (Eppendorf tube) and allowed to stand at room temperature for overnight. Calf thymus DNA (5 mM, 1 μl) was added thereto and heated at 90° C. for 5 minutes. DNA was collected by ethanol precipitation. […]

HeLaS3 cells = experiment: Growth Inhibitory Test on HeLaS3 Cells; format: cell-based; details: Homo sapiens, HeLa S3, 72 hours incubation, cell counts
Procedure: Cytotoxic activity of the compound of the present invention based on the properties described hereinbefore was examined. Cytotoxic activities of PyPyLDu86 and ImPyLDu86 of the present invention and known anticancer agent duocarmycin on HeLaS3 cells (uterocervical squamous cell carcinoma cells) were tested.
Suspension 0.75 ml of HeLaS3 cells, 2.67×10^4 cells/ml, in MEM medium containing 10% fetal bovine serum and 2 mM glutamine, was dispensed into each well in 24 cell culture plate. After incubation in the CO2-incubator at 37° C. for overnight, 0.25 ml portions of each test compound shown in Table 1, which was appropriately diluted with medium, was added into each well.
After cells were incubated for 72 hours in the CO2-incubator, the culture supernatant was removed, and cells were dispersed using trypsin-ethylenediaminetetraacetic acid (EDTA) and collected. Cell counts were counted by cell counter, and cell counts without treatment and cell counts treated with known concentration of test compound were compared to calculate the concentration of test compound which inhibits 50% of cell growth (IC50).

SMILES	efficiency of cleavage ([1]; double-strand DNA cleavage, calculated by an amount of used ImPyLDu86) [%]	cleavage of the double-strand DNA (sites) ([1]; upper and lower strand, thermally induced strand cleavage, from the lower concentration)	IC50 (HeLaS3 cells) [nM]
COC(=O)c1c(C)[nH]c2c1C13CC1CN(C(=O)/C=C/c1cc(NC(=O)c4nc(NC(C)=O)cn4C)cn1C)C3=CC2=O (centres unmarked) [ImPyLDu86]	~70	mainly cleaved at the site 1 and the site 2 of the two strands	0.7
COC(=O)c1cc2c([nH]1)C(=O)C=C1N(C(=O)c3cc4cc(OC)c(OC)c(OC)c4[nH]3)C[C@H]3C[C@]123 [Duocaraycin, duocarmycin, reference compound]	–	–	4.7
COC(=O)c1c(C)[nH]c2c1C13CC1CN(C(=O)/C=C/c1cc(NC(=O)c4cc(NC(C)=O)cn4C)cn1C)C3=CC2=O (centres unmarked) [PyPyLDu86]	–	–	1.5
